Measurements published in US20100234395A1, “UREIDE DERIVATIVE AND PHARMACEUTICAL APPLICATION THEREOF” (TORAY INDUSTRIES, INC., priority 2006, published 2010).
Read-outs that look alike come from different tables or passages of the source.

Tests used:
COX-2 = biological target: T1, COX-2 (Homo sapiens, UniProt P35354); assay: Activity of inhibiting COX-2 in human blood (prostaglandin E2 after lipopolysaccharide); type: cell-based; conditions: prostaglandin E2 production
T1 construct: Human blood that had been sampled with the use of heparin (19 units/ml) was used; from tissue; host or cells: human whole blood (heparinised), aspirin-pretreated, stimulated with lipopolysaccharide
T1 sequence (P35354 18-604): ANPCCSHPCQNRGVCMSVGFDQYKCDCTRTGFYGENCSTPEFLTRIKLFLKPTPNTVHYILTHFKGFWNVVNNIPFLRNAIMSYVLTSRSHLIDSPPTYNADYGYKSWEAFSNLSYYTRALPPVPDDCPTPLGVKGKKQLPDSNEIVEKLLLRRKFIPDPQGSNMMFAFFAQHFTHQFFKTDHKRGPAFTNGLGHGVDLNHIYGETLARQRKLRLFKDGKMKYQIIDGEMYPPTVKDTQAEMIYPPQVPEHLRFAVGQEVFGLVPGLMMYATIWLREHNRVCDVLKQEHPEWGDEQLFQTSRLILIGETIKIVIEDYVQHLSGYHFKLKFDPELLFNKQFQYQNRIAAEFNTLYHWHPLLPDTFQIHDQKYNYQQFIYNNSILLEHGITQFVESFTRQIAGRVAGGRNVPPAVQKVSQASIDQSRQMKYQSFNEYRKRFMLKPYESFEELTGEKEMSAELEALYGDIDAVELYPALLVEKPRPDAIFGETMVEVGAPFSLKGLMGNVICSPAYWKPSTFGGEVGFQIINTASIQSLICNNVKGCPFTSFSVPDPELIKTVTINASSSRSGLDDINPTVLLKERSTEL
Experimental: Human blood that had been sampled with the use of heparin (19 units/ml) was used. Blood was fractionated to reaction tubes in amounts of 500 μl, aspirin (12 μg/ml) was added thereto, and the resultants were incubated at 37° C. for 6 hours. Thereafter, the test compound or solvent, and lipopolysaccharide (10 μg/ml) were added, and the reaction was allowed to proceed for 18 hours. After the completion of the reaction, the supernatant (blood plasma) was recovered via centrifugation at 4° C., and the amount of prostaglandin E2 in the plasma was quantified using a kit (514010, Cayman Chemical). Dimethyl sulfoxide (DMSO) was used as a solvent for the test compound. The amount of prostaglandin E2 produced via the addition of lipopolysaccharide was designated as 100%, and the concentration of the test compound that inhibits 50% of such reaction was represented by the IC50 value.

COX-1 = biological target: T2, COX-1 (Homo sapiens, UniProt P23219); assay: Activity of inhibiting COX-1 in human blood (thromboxane B2 after ionomycin); type: cell-based; conditions: thromboxane B2 production
T2 construct: Human blood that had been sampled with the use of heparin (19 units/ml) was used; from tissue; host or cells: human whole blood (heparinised)
T2 sequence (P23219 24-599): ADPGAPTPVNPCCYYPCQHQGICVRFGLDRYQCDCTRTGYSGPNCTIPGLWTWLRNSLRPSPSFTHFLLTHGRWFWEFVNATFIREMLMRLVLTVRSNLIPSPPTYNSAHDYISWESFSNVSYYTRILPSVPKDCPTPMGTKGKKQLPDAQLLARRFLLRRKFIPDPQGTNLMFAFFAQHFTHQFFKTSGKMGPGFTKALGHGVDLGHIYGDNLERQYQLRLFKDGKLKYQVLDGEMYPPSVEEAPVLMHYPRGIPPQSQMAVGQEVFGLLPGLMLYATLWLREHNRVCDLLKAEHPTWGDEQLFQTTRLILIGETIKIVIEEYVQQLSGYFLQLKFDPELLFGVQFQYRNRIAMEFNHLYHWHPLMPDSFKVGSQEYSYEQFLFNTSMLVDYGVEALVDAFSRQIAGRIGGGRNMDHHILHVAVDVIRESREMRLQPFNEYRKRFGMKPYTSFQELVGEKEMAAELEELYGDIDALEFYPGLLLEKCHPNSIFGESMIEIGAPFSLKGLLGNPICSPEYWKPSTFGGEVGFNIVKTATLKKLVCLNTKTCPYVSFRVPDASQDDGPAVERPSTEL
Experimental: Human blood that had been sampled with the use of heparin (19 units/ml) was used. Blood was fractionated to reaction tubes in amounts of 500 μl, the test compound or solvent was added thereto, and the resultants were incubated at 37° C. for 60 minutes. Dimethyl sulfoxide (DMSO) was used as a solvent for the test compound. Thereafter, ionomycin (30 nM) was added, and the reaction was allowed to proceed for 30 minutes. After the completion of the reaction, the supernatant (blood plasma) was recovered via centrifugation at 4° C., and the amount of thromboxane B2 in the plasma was quantified using a kit (519031, Cayman Chemical). The amount of thromboxane B2 produced via the addition of ionomycin was designated as 100%, and the concentration of the test compound that inhibits 50% of such reaction was represented by the IC50 value.

ICR mice = assay: Partial sciatic nerve ligation model in mice (Seltzer model), von Frey test; type: in vivo; conditions: 7 days after ligation, FIG. 1
Experimental: Analgesic effects of the compound of the present invention were evaluated using the partial sciatic nerve ligation model (Seltzer models) in mice, with which neuropathic pain can be evaluated.
Models of neuropathic pain were prepared in accordance with the method of Seltzer et al. ICR mice (5-week-old, male) were put under anesthesia with sodium pentobarbital (70 mg/kg, i.p.) to expose the sciatic nerve of the femoral region of the right posterior limb, and half of the sciatic nerve was strongly and triply ligated using 8-0 silk yarn (Natsume Seisakusho, Co., Ltd.) under a microscope (this group is designated as the “ligation group”). The group that had been subjected to exposure of the sciatic nerve without ligation was designated as a sciatic nerve control group (i.e., the “sham group”). […] The von Frey tests were performed 1 hour, 2 hours, and 3 hours after the oral administration for determining the pre-values prior to the administration of the test substances, which took place 7 days after the ligation surgery of sciatic nerve, and such values were designated as the indicators of analgesic effects. Gabapentin (30 mg/kg, po) was used as a positive control. As a solvent for the test compound, 27% HP—P—CD was used.
The obtained data were processed by performing a paired t-test amongst several groups and correcting the data via Dunnett's method.
The compound of Reference Example 78 is disclosed in the claims of JP Patent Publication (kohyo) No. 2006-517535 A, the compounds of Reference Example 93 and Reference Example 199 are disclosed in the claims of JP Patent No. 3003148, and the compound of Reference Example 103 is disclosed in the claims of JP Patent Publication (kohyo) No. 2006-514095 A. Accordingly, sulfate of Reference Example 78, toluenesulfonate of Reference Example 93, the free compound of Reference Example 199, and sulfate of Reference Example 103 were used as test compounds and evaluated using mouse models of partial sciatic nerve ligation, which were similar to those used in Example 79. 27% HP-β-CD was used as a solvent for the test compounds.

ddY mice [1] = assay: Acetic acid writhing test in mice (analgesic effects); type: in vivo; conditions: for ED50: Mus musculus
Experimental: ddY mice were grown for at least 16 hours under fasting conditions while free water intake was allowed, and a solution of the test compound or a solvent was orally administered thereto (0.1 ml/10 g). As a solvent for a solution of the test compound, dimethyl sulfoxide (DMSO):Tween 80:27% hydroxypropyl-P-cyclodextrin (hereafter abbreviated to “HP-β-CD”) (1:1:8) or 27% HP-β-CD was used. A solution of 0.6% acetic acid (0.1 ml/10 g) was administered intraperitoneally 45 minutes after administration to induce a writhing reaction (i.e., a movement of stretching or arching the body). The number of the writhing reactions that had occurred for the period from 10 minutes after administration of the acetic acid solution to 10 minutes thereafter was counted, and the number of times was designated as an indicator of pain. The number of times of reactions in the group to which a solvent had been administered was designated as 100%, and the concentration of the test compound that had inhibited 50% of such reaction was designated as the ED50 value.
The compound of Reference Example 78 is disclosed in the claims of JP Patent Publication (kohyo) No. 2006-517535 A, the compounds of Reference Examples 93 and 199 are disclosed in the claims of JP Patent No. 3003148, and the compound of Reference Example 103 is disclosed in the claims of JP Patent Publication (kohyo) No. 2006-514095 A. Thus, these compounds were compared with the compounds of the present invention having similar structures in terms of analgesic effects with oral administration (Table 4) or subcutaneous administration (Table 5). Dimethyl sulfoxide (DMSO):Tween 80:27% HP-β-CD (1:1:8) or 27% HP-β-CD was used as a solvent for the test compound.

ddY mice [2] = assay: Formalin test in mice; type: in vivo; conditions: oral 10 mg/kg, FIG. 2; for indicator of pain (licking time), phase II: 10 to 30 minutes after formalin; for indicator of pain (licking time), phase I: within 10 minutes after formalin
Experimental: ddY mice were grown for at least 16 hours under fasting conditions while free water intake was allowed, and a solution of the test compound or a solvent was orally administered thereto (0.1 ml/10 g). As a solvent for a solution of the test compound, 27% HP-β-CD was used. Thirty minutes after administration, 20 μl of a 2.5% formalin solution was subcutaneously administered to the ichnograms of right posterior legs of mice to induce a movement of licking. A movement of mice to lick the treated legs was designated as an indicator of pain, and the licking time was measured at 5-minute intervals for 30 minutes. The reaction that had occurred within 10 minutes immediately after administration of the formalin solution was designated as the phase I reaction, and the reaction that had occurred 10 to 30 minutes after administration was designated as the phase II reaction.

[3] = oral administration 45 minutes before 0.6% acetic acid i.p., 50% inhibition of writhing reactions, read-out: ED50 (mg/kg)[90% confidence limit]
[4] = oral administration of 3 and 10 mg/kg of Example 27 and Example 40, respectively
[5] = sc, Table 5, subcutaneous administration, read-out: ED50 (mg/kg) [90% confidence limit]

| SMILES | IC50 (COX-2) | IC50 (COX-1) | ED50 (ddY mice [1]; [3]) | other results |
| --- | --- | --- | --- | --- |
| COC(=O)C1(c2nc(-c3ccc(OC)cc3)c(-c3ccc(OC)cc3)o2)CCN(C(=O)N(C)O)CC1 [Example 14, Methyl 4-(4,5-bis(4-methoxyphenyl)oxazol-2-yl)-1-(N-hydroxy-N-methylcarbamoyl)-4-piperidinecarboxylate] | > 10 µM | < 0.1 µM | 4.17 mg/kg | results of the von Frey test (ICR mice; oral administration of 10 mg/kg): significantly improved |
| COc1ccc(-c2cc(C3CCN(C(=O)N(C)O)CC3)nn2-c2ccc(OC)cc2)cc1 [Example 40, 4-(1,5-Bis(4-methoxyphenyl)-1H-pyrazol-3-yl)-1-(N-hydroxy-N-methylcarbamoyl)piperidine] | > 10 µM | < 0.1 µM | 1.64 mg/kg | indicator of pain (licking time), phase II (ddY mice [2]): significantly improved; indicator of pain (licking time), phase I (ddY mice [2]): significantly improved; results of the von Frey test (ICR mice; [4]): significantly improved; ED50 (ddY mice [1]; [5]): 2.47 mg/kg; activity ratio (analgesic effects) (ddY mice [1]; subcutaneous administration, compared with Reference Example 103 (sulfate)): at least 40 times |
| COc1ccc(-c2nc(C3(C#N)CCN(C(=O)N(C)O)CC3)sc2-c2ccc(OC)cc2)cc1 [Example 56, 4-(4,5-Bis(4-methoxyphenyl)thiazol-2-yl)-4-cyano-1-(N-hydroxy-N-methylcarbamoyl)piperidine] | > 10 µM | < 0.1 µM | 4.61 mg/kg |  |
| COc1ccc(-c2oc(C3CCN(C(=O)N(C)O)CC3)nc2-c2ccc(C)cc2)cc1 [Example 4, 4-(5-(4-Methoxyphenyl)-4-(4-tolyl)oxazol-2-yl)-1-(N-hydroxy-N-methylcarbamoyl)piperidine] | > 10 µM | < 0.1 µM | 4.02 mg/kg |  |
| COc1ccc(-c2nc(C3CCN(C(=O)N(C)O)CC3)oc2-c2ccc(C)cc2)cc1 [Example 7, 4-(4-(4-Methoxyphenyl)-5-(4-tolyl)oxazol-2-yl)-1-(N-hydroxy-N-methylcarbamoyl)piperidine] | > 10 µM | < 0.1 µM | 3.27 mg/kg |  |
| COc1ccc(-c2nc(C3CCN(C(=O)N(C)O)CC3)oc2-c2ccc(OC)cc2)cc1 [Example 1, 4-(4,5-Bis(4-methoxyphenyl)oxazol-2-yl)-1-(N-hydroxy-N-methylcarbamoyl)piperidine] | > 10 µM | < 0.1 µM | 2.02 mg/kg | ED50 (ddY mice [1]; Table 4, oral administration, comparison with similar known compound, read-out: ED50 (mg/kg) [90% confidence limit]): 2.02 mg/kg; activity ratio (analgesic effects) (ddY mice [1]; oral administration, compared with Reference Example 78 (sulfate)): at least 49 times |
| COc1ccc(-c2oc(C3CCN(C(=O)N(C)O)CC3)nc2-c2ccc(Cl)cc2)cc1 [Example 12, 4-(4-(4-Chlorophenyl)-5-(4-methoxyphenyl)oxazol-2-yl)-1-(N-hydroxy-N-methylcarbamoyl)-piperidine] | > 10 µM | < 0.1 µM | 2.29 mg/kg |  |
| COc1ccc(-c2nc(C3CCN(C(=O)N(C)O)CC3)sc2-c2ccc(OC)cc2)cc1 [Example 27, 4-(4,5-Bis(4-methoxyphenyl)thiazol-2-yl)-1-(N-hydroxy-N-methylcarbamoyl)piperidine] | > 10 µM | < 0.1 µM | 2.46 mg/kg | indicator of pain (licking time), phase II (ddY mice [2]): significantly improved; indicator of pain (licking time), phase I (ddY mice [2]): significantly improved; results of the von Frey test (ICR mice; [4]): significantly improved; ED50 (ddY mice [1]; [5]): 1.82 mg/kg; activity ratio (analgesic effects) (ddY mice [1]; subcutaneous administration, compared with Reference Example 93 (toluenesulfonate)): at least 54 times; activity ratio (analgesic effects) (ddY mice [1]; subcutaneous administration, compared with Reference Example 199): about 19 times |
| COc1ccc(-c2nc(C3CCN(C(=O)N(C)O)CC3)oc2-c2ccc(Cl)cc2)cc1 [Example 20, 4-(5-(4-Chlorophenyl)-4-(4-methoxyphenyl)oxazol-2-yl)-1-(N-hydroxy-N-methylcarbamoyl)-piperidine] | > 10 µM | < 0.1 µM | 6.45 mg/kg |  |
| COc1ccc(-c2nc(C3CCN(C(=O)N(C)O)CC3)oc2-c2ccc(F)cc2)cc1 [Example 9, 4-(5-(4-Fluorophenyl)-4-(4-methoxyphenyl)oxazol-2-yl)-1-(N-hydroxy-N-methylcarbamoyl)-piperidine] | > 10 µM | < 0.1 µM | 2.63 mg/kg |  |
